Data from patent publication US7662851B2, “Use of specific cyklolignans” (Axelar AB, priority 2001, dated 2010).
Like-named read-outs stand apart in the source and are kept apart here.

Assays:
[1] = Systemic toxicity, daily intraperitoneal injection in nude mice; conditions: for Signs of disease: up to 5 days
Experimental: Four to five-week old pathogen-free nude mice (nu/nu) were used and housed within plastic isolators in a sterile facility. […] Experimental treatments with podophyllotoxin, deoxypodophyllotoxin or picropodophyllin were performed by daily intraperitoneal injections of the compound in 100 μl volume of solvent, composed of a mixture of DMSO and physiological saline (8:2). Control mice were treated with the solvent. 3-6 animals were treated in each group. Animals were monitored three times a week for signs of disease and tumor growth. Tumor mass was estimated using the formula (d^2×D)/2, where d and D represent the small and large diameters of the tumor, respectively. The mice were carefully observed for presence of side effects and were sacrificed at the end of the experiments for histological analysis of the lesions. All experiments were performed according to the ethical guidelines for laboratory animal use, provided by institutional ethical committee.
In the next experiment we analyzed systemic effects of the drugs by injecting 100 μl intraperitoneally of each compound daily over 5 days. Two doses were injected (7 or 28 mg/kg/d) and 3-6 mice were used for each drug and dose. The mice were checked carefully daily for signs of discomfort, diseases and weight loss.

HaCaT cells = assay: Cell viability of HaCaT cells (psoriasis model); type: cell-based; conditions: Homo sapiens, 48 h, read-out: Cell viability
Experimental: Keratinocytes (HaCaT cells) were provided by and tested in collaboration with Professor Mona Bäckdahl, Department of Dermatology, Karolinska Hospital, Stockholm, Sweden. The HaCaT cell line is a spontaneously immortalized human keratinocyte cell line (Boukamp P, et al., J Cell Biol 106: 761-771, 1988), which is frequently used as an experimental model for psoriasis (Wraight, C. J., et al. Nat Biotechnol 18: 521-526, 2000.) HaCaT cells were cultured in Dulbecco's Modified Eagle's Medium containing 10% fetal bovine serum, glutamine, benzylpenicillin and streptomycin.
Cell proliferation kit II (Roche Inc.) is based on colorimetric change of the yellow tetrazolium salt XTT in orange formazan dye by the respiratory chain of viable cells (Roehm, N W, et al., J Immunol Methods 142:257-265, 1991). Cells seeded at a concentration of 5000/well in 100 μl medium in a 96-well plate were treated with different drugs in the given concentration. After 24 or 48 h the cells were incubated, according to the manufacturer's protocol, with XTT labelling mixture. After 4 h the formazan dye is quantified using a scanning multiwell spectrophotometer with a 495-nm filter. The absorbance is directly correlated with the number of viable cells. The standard absorbance curve was drawn by means of untreated cells seeded at a concentration of from 1000 to 10 000 cells/well with an increasing rate of 1000 cells/well. […]

IGF-1R [2] = biological target: T1, IGF-1R (Homo sapiens, UniProt P08069); assay: IGF-1R phosphorylation in various malignant cell types (EC50); type: cell-based; parameters: endogenous in cells; host or cells: 12 malignant cell lines (e.g. SK-MEL-2, SK-MEL-5, SK-MEL-28); conditions: 1 h
T1 sequence (P08069 31-1367): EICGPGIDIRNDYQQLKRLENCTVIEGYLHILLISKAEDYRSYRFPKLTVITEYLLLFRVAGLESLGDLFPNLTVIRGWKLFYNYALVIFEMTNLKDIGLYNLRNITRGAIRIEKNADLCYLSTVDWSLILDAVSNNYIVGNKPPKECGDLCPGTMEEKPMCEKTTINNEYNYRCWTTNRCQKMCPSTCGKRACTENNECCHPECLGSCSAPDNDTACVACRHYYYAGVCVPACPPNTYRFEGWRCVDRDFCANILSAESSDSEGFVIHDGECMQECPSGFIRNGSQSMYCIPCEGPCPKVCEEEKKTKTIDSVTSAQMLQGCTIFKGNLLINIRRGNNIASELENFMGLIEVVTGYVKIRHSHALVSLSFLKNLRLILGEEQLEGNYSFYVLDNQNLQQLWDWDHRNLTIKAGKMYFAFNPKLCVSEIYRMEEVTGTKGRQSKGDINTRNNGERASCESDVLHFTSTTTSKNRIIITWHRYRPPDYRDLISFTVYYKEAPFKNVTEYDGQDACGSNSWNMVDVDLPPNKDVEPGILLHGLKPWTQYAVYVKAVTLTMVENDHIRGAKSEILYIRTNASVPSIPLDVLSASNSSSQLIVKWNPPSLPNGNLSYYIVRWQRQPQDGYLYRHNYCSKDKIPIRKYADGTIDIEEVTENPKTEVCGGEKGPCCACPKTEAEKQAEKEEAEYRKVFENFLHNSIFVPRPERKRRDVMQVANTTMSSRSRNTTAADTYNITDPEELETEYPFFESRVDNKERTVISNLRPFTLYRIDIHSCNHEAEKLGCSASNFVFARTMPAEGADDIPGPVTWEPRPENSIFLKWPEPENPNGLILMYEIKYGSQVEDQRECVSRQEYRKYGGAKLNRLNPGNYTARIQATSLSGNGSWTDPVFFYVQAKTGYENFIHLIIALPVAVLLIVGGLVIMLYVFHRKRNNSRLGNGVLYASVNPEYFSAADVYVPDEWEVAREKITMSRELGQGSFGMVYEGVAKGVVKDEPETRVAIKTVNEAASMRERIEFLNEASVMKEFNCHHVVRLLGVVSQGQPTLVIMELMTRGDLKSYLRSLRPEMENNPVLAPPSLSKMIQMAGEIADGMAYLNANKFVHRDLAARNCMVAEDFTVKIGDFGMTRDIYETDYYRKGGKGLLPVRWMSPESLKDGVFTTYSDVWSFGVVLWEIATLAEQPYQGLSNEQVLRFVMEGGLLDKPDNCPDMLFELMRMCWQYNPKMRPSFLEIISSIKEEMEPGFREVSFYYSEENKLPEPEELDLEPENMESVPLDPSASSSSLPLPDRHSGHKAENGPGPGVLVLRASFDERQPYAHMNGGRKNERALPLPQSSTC
Experimental: Cells were cultured to subconfluency in 6-cm plates, and then fresh medium containing 10% FBS and the desired compounds were added for 1 h. The cells were then lyzed and subjected to immunoprecipitation using specific antibodies. Immunoprecipitates were resolved by sodium dodecyl sulphate polyacrylamide gel electrophoresis (SDS-PAGE) and transferred to nitro-cellulose membranes and incubated with anti-phosphotyrosine antibody. Antibodies to actin (in cell extract) or IGF-1R beta subunit were used as loading controls. After detection the films were scanned for quantification.
12 cell lines of different origins were seeded in 6-cm dishes, at a concentration of 10,000 cells/cm^2 in Minimal Essential Medium supplemented with fetal calf serum (FCS). When the cells had reached a concentration of 65,000 cells/cm^2, they were treated with 0, 0.01, 0.025, 0.05, 0.1 or 1.0 uM doses of podophyllotoxin and picropodophyllin for 1 h. The cells were then harvested for assay and quantification of IGF-1R phosphorylation as described above. The EC50 value, the Efficient Concentration 50%, i.e. the concentration needed to reduce the phosphorylation with 50%, for each inhibitor and cell line, is then calculated. The results are based on two different experiments.

IGF-1R [3] = biological target: T1, IGF-1R; assay: IGF-1R tyrosine autophosphorylation, sandwich ELISA, cell-free; type: biochemical; parameters: expressed in transfected cells; host or cells: P6 cell line (murine fibroblasts overexpressing human IGF-1R); receptor captured on plates with an antibody to the beta subunit
Experimental: IGF-1R tyrosine autophosphorylation was analysed by a sandwich ELISA assay. Briefly, 96-well plates (Immunolon, Nunc) were coated overnight at 4° C. with 1 μg/well of the monoclonal antibody Ab-5 (LabVision) to the IGF-1R beta subunit. The plates were blocked with 1% BSA in PBS Tween for 1 h, then 80 µg/well of total protein lysate from the P6 cell line was added. As a negative control was used total protein lysate from the R-cell line. The investigated compounds were added in tyrosine kinase buffer without ATP at room temperature for 30 min, prior to kinase activation with ATP. Kinase assay was performed using the Sigma kit. After spectrophotometry the IC50 values of inhibitors were determined using the Regression function of Statistica program.
To investigate whether PPP interferes with the tyrosine autophosphorylation at the ATP level or at the substrate level (i.e., the tyrosine kinase domain of the IGF-1R […]), various concentrations of ATP (19-300 μM) were added to the reaction buffer during the assay.

[4] = P6 fibroblasts with overexpressed IGF-1R

Row | SMILES | Surviving mice/Investigated mice ([1]; 7 mg/kg/d i.p., 1 d) | Surviving mice/Investigated mice ([1]; 7 mg/kg/d i.p., 2 d) | Surviving mice/Investigated mice ([1]; 7 mg/kg/d i.p., 3 d) | Surviving mice/Investigated mice ([1]; 28 mg/kg/d i.p., 1 d) | Surviving mice/Investigated mice ([1]; 28 mg/kg/d i.p., 2 d) | EC50 (IGF-1R [2]; FM55 melanoma) | EC50 (IGF-1R [2]; MCF-7 breast cancer) | EC50 (IGF-1R [2]; [4]) | EC50 (IGF-1R [2]; PC-3 prostate cancer) | EC50 (IGF-1R [2]; RD-ES Ewing's sarcoma) | EC50 (IGF-1R [2]; SK-MEL-5 melanoma) | EC50 (IGF-1R [2]; SK-MEL-28 melanoma) | other results
1 | COc1cc([C@@H]2c3cc4c(cc3[C@H](O)[C@H]3COC(=O)[C@@H]23)OCO4)cc(OC)c1OC [Picropodophyllin, picropodophyllin] | 3/3 | 3/3 | 3/3 | 6/6 | 6/6 | 60 nM | 40 nM | 30 nM | 90 nM | 50 nM | 40 nM | 40 nM | Surviving mice/Investigated mice ([1]; 7 mg/kg/d i.p., 4 d): 3/3; Surviving mice/Investigated mice ([1]; 7 mg/kg/d i.p., 5 d): 3/3; Surviving mice/Investigated mice ([1]; 28 mg/kg/d i.p., 3 d): 6/6; Surviving mice/Investigated mice ([1]; 28 mg/kg/d i.p., 4 d): 6/6; Surviving mice/Investigated mice ([1]; 28 mg/kg/d i.p., 5 d): 6/6; Signs of disease ([1]; high dose (28 mg/kg/d) i.p. daily): did not exhibit any evidence of disease; Signs of disease ([1]; low dose (7 mg/kg/d) i.p. daily): did not exhibit any evidence of disease; viability at 0.05 µM (HaCaT cells; HaCaT cells, 0.05 μM, control 100): 35%; IC50 (IGF-1R [3]; cell-free, ATP 19-300 μM in reaction buffer, read-out: IC50, autophosphorylation of IGF-1R at various ATP concentrations): 1 to 2 nM; IC50 (IGF-1R [3]; cell-free, FIG. 4, read-out: IC50, autophosphorylation of IGF-1R): ~1 nM
2 | COc1cc([C@@H]2c3cc4c(cc3[C@H](O)[C@H]3COC(=O)[C@H]23)OCO4)cc(OC)c1OC [Podophyllotoxin, podophyllotoxin] | 3/3 | 1/3 | 0/3 | 2/6 | 0/6 | 40 nM | 50 nM | 20 nM | 60 nM | 30 nM | 30 nM | 30 nM | Animals dead within 2 days ([1]; high dose (28 mg/kg/d) i.p.): 100%; Animals dead within 2 days ([1]; low dose (7 mg/kg/d) i.p.): 67%; viability at 0.05 µM (HaCaT cells; HaCaT): 30%; EC50 (IGF-1R [2]; BE melanoma): 40 nM; EC50 (IGF-1R [2]; DWB melanoma): 30 nM; EC50 (IGF-1R [2]; SK-MEL-2 melanoma): 40 nM; IC50 (IGF-1R [3]; in vitro, stated in description, read-out: IC50 for IGF-1R-inhibition when tested in vitro): 1 nM
